US6812213B2, “Steroidal sapogenins and their derivatives for treating alzheimer's disease” (Phytopharm, plc, priority 1998, dated 2004)
“And” between values parts separate entries of the source, which are not always exact repeats. Equal entries are not always repeated.

Experiments:
oestrogen receptor = test: Oestrogenic effects of steroid sapogenin compounds
From the text: In identifying compounds that would have use in the treatment of SDAT and other diseases characterised by reductions in receptor numbers or synaptic transmission, the inventors have given consideration to the need to identify compounds that would have the desired effect but would be devoid of any oestrogenic effects, as these would be unacceptable, particularly in male patients. A number of the compounds claimed to have activity in patent application DE 4303214A1 have marked oestrogenic activity and are therefore unacceptable.
In addition these compounds were tested at other steroid receptors as it was considered that compounds that would be of clinical sue should have no effects at the other steroid receptors.

[1] = tested on: m2 receptors on CHO cells; test: Expression of m2 receptors on transfected CHO cells (tritiated QNB binding); type: cell-based; conditions: DMSO control
Protocol: 1. Chinese hamster ovary (CHO) cells transfected with the a DNA fragment coding for a muscarinic receptor. The cell line used for the majority of the experiments was a cell line expressing the m2 receptor.
The effects of various compounds on the expression of m2 receptors on CHO cells transfected with DNA for the m2 receptor were investigated. Receptor numbers were assayed using tritiated QNB binding and subtracting non-specific binding. Compounds were dissolved in DMSO and DMSO was used as a control. Compounds were tested at a range of final concentrations. Compounds were also tested in the presence and absence of tamoxifen to try to distinguish an oestrogen receptor mediated mechanism.

[2] = tested on: muscarinic receptors on cultured cardiac muscle cells; test: Muscarinic receptor expression on cultured neonatal cardiac muscle cells (tritiated QNB); type: cell-based, Sprague Dawley rats
Protocol: 3. Cultured cardiac muscle cells obtained from neonatal Sprague Dawley rats. The cardiac muscle cells express muscarinic receptors, typically m2. The level of these receptors falls on prolonged culture and the effects of compounds of interest in preventing the fall in receptor numbers was investigated.
Cardiac muscle cells were isolated from the ventricular muscle of neonatal Sprague Dawley rats using standard techniques. Cells were cultured in vitro and muscarinic receptor numbers expressed on cell surfaces membrane fragments after homogenisation of cells harvested at various time points were estimated using specific binding of tritiated QNB. […] The experiments were therefore designed to investigate the effects of the various compounds in inhibiting this decline in receptor numbers.

m1 receptor mRNA = m1 receptor mRNA levels in brain by in situ hybridisation; type: in vivo, SD rats; conditions: for m1 receptor mRNA, comparison SaG vs Aged: 3 mg sarsasapogenin per rat per day in feed, four months, positive means increased
Protocol: 20 months old pure-line male SD rats were divided randomly into 2 groups. One group received an average of 3 mg of sarsasapogenin per rat per day mixed into the daily feed. The control group received normal food and water. Four months later, their brains were used in hybridisation technique experiments, with 4 to 6 months old rats used as a young control group. Other feeding arrangements for each group were completely identical.
A cDNA chain which respectively corresponds to the maNA of both m1 and m2 was synthesised, m1 corresponds to the 3-18 amino acid sequence of receptor protein, i.e. TGGTGCCAAGACAGTGATGTTGGGACTGACAGCAGGGGGCACTGAGGT, and M2 to the 1-16 amino acid sequence, i.e. ATGAATAACTCAACAAACTCCTCGAACAATGGCTTGGCTATTACCAGT. The cDNA was labelled using a 3′-terminal-label reagent kit with a-^35S-dATP (8.9 TBq/mmol) as the label material. After the reaction had finished, it was purified with a nucleotide column. The specific activity of the batch was estimated (16.67-33.34)×108 MBq/μg. a-^35S-dATP, 3′-terminal-label reagent kit and nucleotide column were obtained from Du Pont Co., USA.
One rat was obtained from each group each time and parallel experiments were performed. The rats were decapitated and their brains removed intact. 15 μm thick coronal slices were prepared in a constantly freezing cryo-microtome (AS-600 cryo-microtome, Anglia Scientific Co, UK). Slices were taken from different areas (identical places for each rat) and were mounted on slides smeared with polylysine, dried in a cool current of air, fixed in a solution of 4% paraformaldehyde (containing 1×phosphate buffer saline (PBS), pH 7.0) for 5 minutes before being washed twice in PBS. They were then placed in 0.25% acetic anhydride solution (containing 0.1 M triethanolamine hydrochloride, Ph 8.0, and 0.9% sodium chloride) for 10 minutes, dehydrated in 70%, 80%, 95%, and 100% ethyl alcohol for 1 minute, degreased in chloroform for 5 minutes, and finally treated in 100% and 95% ethyl alcohol for 1 minute successively.
Slices used as negative controls were taken and dehydrated in ethyl alcohol etc. as detailed above, but treated in advance in 100 mg m1 RNase and 2×SSC solution (salt/sodium citrate solution containing 300 mmol/L sodium chloride and […] sodium citrate) for 2 hours at 37° C. […]
Autoradiographs were prepared in a dark room, the specimen and the hyperfilm beta max being pressed together using the contact method and placed in a cassette with a desiccant, exposed at 4° C. for 2 to 3 weeks. […] Finally, the autoradiographs were analysed using a computerised image analyser (VIDAS imaging analyser, Kontron, Germany).

[3] = tested on: known steroidal receptors; test: Binding to known steroidal receptors
[4] = tested on: major known classes of membrane bound receptor; test: Direct binding to major known classes of membrane bound receptor
From the text: Thus it can be postulated that the observed effects are probably not due to for instance an effect at the nicotinic receptor and a consequential increase in the number of muscarinic receptors. This explanation appears to be even less plausible (although it cannot be excluded) if one considers that certain of the compounds have also been shown by the inventors to increase the number of beta adrenergic receptors expressed on peripheral blood lymphocytes. Thus the mechanism would appear to be one which has a more general effect on the regulation of membrane bound receptors.

M1 cholinergic receptors = conditions: Chinese Patent No. CN1096031A; cited from earlier work
β-adrenergic receptors = conditions: Chinese Patent No. CN1096031A; cited from earlier work
[5] = Molar concentration of compound 10^−5

Compound | Oestrogenic Activity (oestrogen receptor) | Effect on receptor expression—given as % increase compared to control (negative values in brackets) [1, 5] [%] | Concentration of compound causing a significant increase in number of receptors expressed on neonatal cardiac muscle after 10 days in vitro culture [2] | further results
C[C@@H]1CC[C@@]2(OC1)O[C@H]1C[C@H]3[C@@H]4C[C@@H](O)[C@@]5(O)C[C@@H](O)CC[C@]5(C)[C@H]4CC[C@]3(C)[C@H]1[C@@H]2C [Anzurogenin D] | Negative | 22 | 10^−6 M | 
C[C@@H]1CC[C@@]2(OC1)O[C@H]1C[C@H]3[C@@H]4CC=C5C[C@@H](O)CC[C@]5(C)[C@H]4CC[C@]3(C)[C@H]1[C@@H]2C [Diosgenin] | Positive |  |  | 
C[C@@H]1CC[C@@]2(OC1)O[C@H]1C[C@H]3[C@@H]4CC=C5C[C@@H](O)C[C@@H](O)[C@]5(C)[C@H]4CC[C@]3(C)[C@H]1[C@@H]2C [Ruscogenin] | Positive |  |  | 
Astragaloside | Negative |  | 10^−5 M | 
Sarsasapogenin | Negative | 34 | 10^−5 M | m1 receptor mRNA, comparison SaG vs Aged (m1 receptor mRNA; Cortex): 5.77 ± 3.82 (20); m1 receptor mRNA, comparison SaG vs Aged (m1 receptor mRNA; Hippocampus): 0.96 ± 4.26 (10); m1 receptor mRNA, comparison SaG vs Aged (m1 receptor mRNA; Striatum, p < 0.01, listed as SaG): significant increase and 15.71 ± 3.27 (10); levels of M receptor mRNA (m1 receptor mRNA; rats treated with SaG): raised; binding to known steroidal receptors [3]: do not bind; direct binding to membrane bound receptors [4]: not to bind directly; regulation of M1 cholinergic receptors (M1 cholinergic receptors): up-regulate; regulation of β-adrenergic receptors (β-adrenergic receptors): down-regulate
Smilagenin | Negative | 57 | 10^−6 M | Effect on receptor expression—given as % increase compared to control (negative values in brackets) ([1]; Molar concentration of compound 10^−6): 18%
Tigogenin | Negative |  |  | 
